Assays:
miR-155-5p = miR-155-5p levels in CD14+ monocytes cultured with HDL+SAA1 (qRT-PCR); format: cell-based, human; conditions: 24 h
Procedure: Quantitative RT-PCR (qRT-PCR). Total RNA was purified using the Direct-Zol™ RNA MiniPrep kit and total RNA (100 ng) was reverse transcribed into cDNA using the High-Capacity cDNA Reverse Transcription Kit (Applied Biosystems, Foster City, Calif.). Polymerase chain reactions (PCR) were performed on duplicate cDNA samples using TaqMan Universal PCR Master Mix, FAM-MGB dye-labeled Taqman® PTGS2 probe (Assay ID Hs00153133_m1, catalog #4331182), and a 7900 Real Time PCR System running Sequence Detector version 2.4 software, all from Applied Biosystems (Foster City, Calif.). […] For quantification of miR-155-5p expression, miRNA present in total RNA (10 ng) was converted to cDNA using the microRNA cDNA Reverse Transcription kit (Applied Biosystems, Foster City, Calif.). Polymerase chain reaction (PCR) was performed on duplicate cDNA samples using TaqMan Universal PCR Master Mix, Taqman® MicroRNA Assay for has-miR-155-5p (Assay ID #002623, catalog #4427975), and a 7900HT Fast Real-Time PCR System running Sequence Detector version 2.4 software (ThermoFisher Scientific, Waltham, Mass.). miR-155-5p expression was quantified relative to expression of U6 snRNA using the control sample as calibrator to calculate the difference in Ct values (ΔΔCt) and presented as relative mRNA expression.

CD14^+ monocytes = assay: HDL+SAA1-induced cytokine secretion by ex vivo CD14+ monocytes (ELISA); format: cell-based, human; conditions: for HDL+SAA1-mediated increases in cytokine secretion: 24 h
Procedure: Isolation of Peripheral Blood Monocytes. Peripheral blood monocytes were isolated using a two-step process. Peripheral blood was diluted with PBS at a 1:1 ratio, slowly overlaid onto 30 ml of Lymphoprep™ (catalog #07811, StemCell Technologies, Vancouver Canada) in a 50 ml conical tube, and centrifuged at 400×g for 25 min without braking. The peripheral blood mononuclear cell (PBMC) layer was carefully transferred to another 50 ml conical tube, washed with PBS, followed by two washes with FACS buffer (0.5 mM EDTA, 1% BSA, and 1% mouse serum in PBS). Monocytes subsets were identified and sorted by flow cytometry using the following antibodies: PE mouse anti-human CD45 clone HI30 (catalog #555483), BV421 mouse anti-human CD14 clone MφP9 (catalog #563743), and FITC mouse anti-human CD16 clone B73.1 (catalog #561308), and a FACS ARIA Fusion sorter equipped with 355, 407, 488, 532 and 640 nm LASER lines using FACS DIVA 8.0 software (all from BD Biosciences, San Jose, Calif.). The gating strategy identified a population of debris-free, single, live, ^SSCmoderate/high, CD45^+ cells from which CD14^+/CD16^− (classical), CD14^+/CD16^+ (intermediate), CD14^dim/CD16^+ (non-classical), and CD14^+ (classical and intermediate) cells were sorted and utilized for experiments, as indicated (Supplemental FIG. 4).
HDL+SAA1 Stimulation of Peripheral Blood Monocytes Subsets. […] As previously described, normal HDL was isolated from plasma obtained from healthy subjects by sequential KBr differential gradient ultracentrifugation at 330,000 g and extensive dialysis with 50 mM HEPES, 50 mM NaCL, 5 mM MgCl2 and 2 mM CaCl2, pH 7.0, at 4° C. Normal HDL was complexed with recombinant human serum amyloid A-1 at a 2:1 ratio by mixing and incubated at RT overnight to generate HDL+SAA1, which was filtered using a 100-kDa exclusion filter (Amicon Ultra Centrifuge Filters, Millipore, Darmstadt, Germany) to remove any uncomplexed SAA1. Normal HDL was also complexed with the amount of lipopolysaccharide (catalog # L4391, E. coli 0111:B4, y-irradiated, MilliporeSigma, St. Louis, Mo.) present in recombinant human SAA1. Additionally, classical CD14^+ monocytes were treated with the P2X7R antagonist, A438079, the IKK inhibitor, BAY-11-7082, the IKKβ (IKK-2) inhibitor, TPCA-1, or the selective COX-2 inhibitor, celexocib, all from MilliporeSigma(St. Louis, Mo.). Cells were also treated with the FPR2 antagonist, WRW4, or diclofenac from Tocris (Minneapolis, Minn.). The amount of IL-1β, IL-6, TNF-α and IL-10 secreted into cell culture supernatants was quantified using human DuoSet ELISA kits (R&D Systems) and data were acquired using a SpectraMax M2 spectrophotometer (Molecular Devices, San Jose, Calif.). Western blotting, as previously described^43, was performed using antibodies directed against COX-1 (catalog #160110) and COX-2 (catalog #160112), both from Cayman Chemical (Ann Arbor, Mich.). Equivalency of protein loading was established using an antibody directed against GAPDH (catalog #MAB5718) from R&D Systems (Minneapolis, Minn.). Western blots images were captured using an iBright FL1000 Western Blot Imaging System (ThermoFisher Scientific, Waltham, Mass.) and quantified using NIH ImageJ software (imagej.nih.gov). […]

[1] = A438079 10 μM, pre-treated 1 h, HDL+SAA1 24 h

NC(=O)Nc1sc(-c2ccc(F)cc2)cc1C(N)=O [TPCA1]
HDL+SAA1-mediated increases in miR-155-5p (miR-155-5p; TPCA-1 1 μM): attenuated
HDL+SAA1-mediated increases in cytokine secretion (CD14^+ monocytes; TPCA-1 1 μM): prevented

Clc1cccc(-c2nnnn2Cc2cccnc2)c1Cl [A438079]
HDL+SAA1-mediated increases in miR-155-5p (miR-155-5p; A438079 10 μM): significantly reduced
HDL+SAA1-mediated secretion of IL-1β (CD14^+ monocytes; [1]): significantly reduced
HDL+SAA1-mediated secretion of IL-6 (CD14^+ monocytes; [1]): significantly reduced
HDL+SAA1-mediated secretion of IL-10 (CD14^+ monocytes; [1]): significantly reduced
HDL+SAA1-mediated secretion of TNF-α (CD14^+ monocytes; [1]): significantly reduced

Cc1ccc(S(=O)(=O)/C=C/C#N)cc1 [BAY 11-7082]
HDL+SAA1-mediated increases in miR-155-5p (miR-155-5p; BAY-11-7082 10 μM): attenuated
HDL+SAA1-mediated increases in cytokine secretion (CD14^+ monocytes; BAY-11-7082 10 μM): prevented

— US20230017266A1, “Cyclooxygenase-2 Inhibition for the Treatment of SAA-high Asthma” (THE USA, AS REPRESENTED BY THE SECRETARY, DEPT. OF HEALTH …, priority 2019, published 2023)
